From patent publication US11564913B2, “Compositions and methods for treating cancer” (Children's Hospital Medical Center, priority 2019, dated 2023) come the findings set out here.

Assay [1] concerns phosphorylated Vav3 (pY173) in MDA-MB-231 cells. Nature of the assay: Immunoblot of phosphorylated Vav3 (pY173). The class given is cell-based, human. As to conditions: 3 μM, 15 min. How it is done:
FIG. 16: IODVA1 decreases levels of pVav3 in in vitro and in vivo models of triple negative breast cancer. (A) Immunoblot and quantification of Vav3 protein in lysates of MDA-MB-231 triple negative breast cancer cells stably expressing scrambled or Vav3-targeting shRNAs. Viability of the MDA-MB-231 cells stably expressing shVav3 in the presence of IODVA1 (0-1 μM). Cells were grown in the presence of IODVA1 and counted by trypan blue exclusion at the indicated time points. (B) MDA-MB-231 cells were incubated with IODVA1 (3 μM) for 15 min and the levels of phosphorylated Vav3 (pY173) were assessed by immunoblotting. (C) Immunohistochemical staining of phosphorylated Vav3 in tissue derived from MDA-MB-231 xenografts treated with vehicle control or IODVA1.
Next, we tested if IODVA1 is effective in another model of Vav3-dependent cancer. We chose MDA-MB-231 triple negative breast cancer cells because these cells express high endogenous levels of Vav3 (Chen, 2015) and because Vav3 is an acknowledged target in breast cancer (Chen, 2015; Lee, 2008; Aguilar, 2014; Citterio, 2012; Lorenzo-Martin. 2019). […] Second, we incubated MDA-MB-231 cells with IODVA1 (3 μM) for 15 min and analyzed the levels of phosphorylated Vav3 (pY173) by immunoblotting. […]
A general note: A western blot detects proteins with antibodies after separation by electrophoresis.

In another assay the target is p50GAP (Homo sapiens, UniProt Q07960). Put plainly: p50GAP-stimulated GTP-hydrolysis, stopped-flow. The class given is biochemical.
Chain of p50GAP (Q07960 whole entry): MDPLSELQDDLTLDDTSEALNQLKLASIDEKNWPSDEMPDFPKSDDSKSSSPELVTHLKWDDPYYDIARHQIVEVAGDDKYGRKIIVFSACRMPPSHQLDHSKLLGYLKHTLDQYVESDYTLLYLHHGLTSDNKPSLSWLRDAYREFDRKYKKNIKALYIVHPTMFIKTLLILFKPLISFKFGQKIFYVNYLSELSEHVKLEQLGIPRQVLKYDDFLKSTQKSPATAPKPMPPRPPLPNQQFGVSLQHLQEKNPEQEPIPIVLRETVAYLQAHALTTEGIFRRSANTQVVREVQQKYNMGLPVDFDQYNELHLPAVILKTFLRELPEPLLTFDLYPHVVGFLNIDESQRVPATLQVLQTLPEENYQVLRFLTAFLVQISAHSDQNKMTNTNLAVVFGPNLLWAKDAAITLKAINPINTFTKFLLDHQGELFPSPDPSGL
Another assay has as its system NIH-3T3 cells. Nature of the assay: PDGF-induced circular dorsal ruffle (CDR) formation. The class given is cell-based. As to conditions: 0-3 μM for 1 h, PDGF for 10 min.
Assay [2] addresses Vav3 binding to Rac in empty vector Ba/F3 cells (Mus musculus, UniProt Q9R0C8). Nature of the assay: GST-Rac pull-down, immunoblot for pVav3. The class given is cell-based, murine. The settings on record: 3 μM, 30 min. The protocol:
(§1) FIG. 14: IODVA1 targets Vav3 in vitro and in vivo. (A) Ba/F3 cells expressing empty vector Mieg3 or p190-BCR-ABL1 were treated with vehicle control or IODVA1 (IO1, 3 μM) for 30 min and incubated with GST-Rac and glutathione beads. Beads were washed and the protein complexes were separated on SDS-PAGE and immunoblotted for pVav3. Input Vav3 was used as control. (B) Binding affinity (Kd) between IODVA1 and Vav3 (green), LARG (brown), and RacGDP (blue). […] Error bars=SD; N=3. (C) Quantification of the average number of colonies made by bone marrow wild-type (black) and Vav3^−/− (lilac) p190-BCR-ABL1 leukemic cells treated with vehicle control or IODVA1 (IO1, 1 and 3 μM) (* p≤0.05; ** p≤0.01; *** p≤0.001; ns, not significant). (D) Representative histogram data of the cell cycle analysis of wild-type (black and grey bars) and Vav3^−/− (dark and light lilac) bone marrow cells expressing p190-BCR-ABL and treated with vehicle control or IODVA1 (IO1, 3 μM) for 20 h. (E) Quantification by densitometry of the pVav3 band from FIG. 14A. […]
(§2) Rac activity and signaling is regulated by GAPs, GDIs, and RacGEFs. […] The pull-down protein complex was separated on SDS-PAGE and immunoblotted for pVav3 and Vav3 and quantified (FIGS. 14A & 14E). […]

Assay [3] has as its target Vav3 binding to Rac in p190-BCR-ABL Ba/F3 cells (Mus musculus, UniProt Q9R0C8). Put plainly: GST-Rac pull-down, immunoblot for pVav3. The settings on record: 3 μM, 30 min. The assay is classed as cell-based, murine. How it is done:
as §1, §2

The structures appear in SMILES notation.

Chain of Vav3 binding to Rac in p190-BCR-ABL Ba/F3 cells (Q9R0C8 whole entry): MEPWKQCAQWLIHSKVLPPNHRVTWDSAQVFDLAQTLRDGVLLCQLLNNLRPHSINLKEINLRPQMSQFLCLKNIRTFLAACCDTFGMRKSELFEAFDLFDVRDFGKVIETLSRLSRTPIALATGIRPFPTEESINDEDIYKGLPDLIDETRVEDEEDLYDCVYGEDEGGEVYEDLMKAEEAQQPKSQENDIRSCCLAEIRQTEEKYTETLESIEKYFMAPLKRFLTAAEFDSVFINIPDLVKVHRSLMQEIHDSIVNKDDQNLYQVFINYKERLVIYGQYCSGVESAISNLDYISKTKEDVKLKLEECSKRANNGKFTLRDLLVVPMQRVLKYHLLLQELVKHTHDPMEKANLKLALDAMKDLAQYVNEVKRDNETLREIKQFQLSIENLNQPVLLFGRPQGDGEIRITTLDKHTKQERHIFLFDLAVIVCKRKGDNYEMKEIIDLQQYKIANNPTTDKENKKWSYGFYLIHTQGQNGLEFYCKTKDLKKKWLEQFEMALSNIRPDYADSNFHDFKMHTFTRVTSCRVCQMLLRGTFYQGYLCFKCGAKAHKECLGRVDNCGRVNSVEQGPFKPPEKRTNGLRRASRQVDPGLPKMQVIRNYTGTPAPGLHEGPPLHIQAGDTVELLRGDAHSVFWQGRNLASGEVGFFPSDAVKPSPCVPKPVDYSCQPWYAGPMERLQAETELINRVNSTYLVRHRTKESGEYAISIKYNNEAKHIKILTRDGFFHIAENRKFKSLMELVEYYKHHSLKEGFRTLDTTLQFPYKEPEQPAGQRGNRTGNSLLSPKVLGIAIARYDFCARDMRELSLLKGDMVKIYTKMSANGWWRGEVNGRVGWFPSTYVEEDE
Chain of Vav3 binding to Rac in empty vector Ba/F3 cells (Q9R0C8 whole entry): as above

For `OC1(c2ccccn2)N=C(Nc2nc3ccccc3[nH]2)N=C1c1ccccn1` (centres unmarked) [IODVA1, (Z)-2-((1H-benzo[d]imidazol-2-yl)imino)-4,5-di(pyridin-2-yl)-2,5-dihydro-1H-imidazol-5-ol], the pY173 signal entry in assay [1] is listed as “significant decrease”. For the same compound, the “stimulation of the activity of p50GAP” value at p50GAP was “does not stimulate”. The CDR formation entry in the assay with NIH-3T3 cells is “inhibited”. Also, the “Vav3 or pVav3 bound to Rac” value in assay [2] was “no significant change”. The “decrease in intensity of pVav3 band bound to Rac” value in assay [3] stood at 8 times.
